Source: patent US12090225B2 (Avalyn Pharma Inc., priority 2018, dated 2024)
Where two headings read alike, the source gives them in different places. Marks after values point to notes of the source that are not given here.

Columns and labels:
[1] = system: bleomycin pulmonary fibrosis; assay: Therapeutic bleomycin pulmonary fibrosis model: Ashcroft fibrosis score, hydroxyproline; assay type: in vivo, Sprague Dawley rats
Method: Briefly, acclimated Sprague Dawley male rats (c.a. 253 grams at first dosing) were administered bleomycin on days 1, 2, 3 and 6 by the oropharyngeal (OP) route. On the eighth day, treatment was initiated with either saline or nintedanib. […] Ten animals were enrolled into each dosing group. […] All animals were euthanized on day 28d. Body weights were collected throughout the study, with lung weights at termination (Table 55). Left lungs were extracted and measured for hydroxyproline content, while […] were subjected to histology for Ashcroft fibrosis score determination (Table 56).

[2] = Therapeutic bleomycin model: body weight gain, lung weight-to-body weight ratio, tolerability; details: bleomycin rats
parenchymal collagen = assay: Therapeutic silica model: parenchymal collagen (Picrosirius Red); assay type: in vivo, C57BL/6 mice; details: silica mice
Method: Briefly, acclimated 20-22 g female C57BL/6 mice were administered silica on day 1 by the intratracheal route. On the tenth day, treatment was initiated with either saline or nintedanib. […] Sham and silica control groups received saline either IN or PO. Five animals were enrolled into sham groups, 10 animals enrolled into each PO dose groups, and 13 animals were enrolled into each IN dosing group. […] Body weights were collected throughout the study, with lung weights at termination. Flexivent was performed to determine elastance (lung function; Table 59). Left lungs were extracted, stained as assessed for parenchymal collagen (Table 60) and α-smooth muscle actin (αSMA; Table 61), while right lungs were assessed for interleukin-1β (IL-1β; Table 62). […] collagen was measured by Picrosirius Red (PSR) histopathological analysis. […] Due to the positive impact on other key fibrosis modulators (αSMA, IL-1β; Tables 61 and 62) and that silica-induced fibrosis was well-established prior to start of dosing, it is possible that extending the treatment time would ultimately impact parenchymal collagen.

[3] = system: α-smooth muscle actin (αSMA); assay: Therapeutic silica model: lung α-smooth muscle actin; assay type: in vivo, C57BL/6 mice; details: silica mice
Method: (§1) Briefly, acclimated 20-22 g female C57BL/6 mice were administered silica on day 1 by the intratracheal route. On the tenth day, treatment was initiated with either saline or nintedanib. […] Sham and silica control groups received saline either IN or PO. Five animals were enrolled into sham groups, 10 animals enrolled into each PO dose groups, and 13 animals were enrolled into each IN dosing group. […] Body weights were collected throughout the study, with lung weights at termination. Flexivent was performed to determine elastance (lung function; Table 59). Left lungs were extracted, stained as assessed for parenchymal collagen (Table 60) and α-smooth muscle actin (αSMA; Table 61), while right lungs were assessed for interleukin-1β (IL-1β; Table 62). Alpha-smooth muscle actin (αSMA) is a marker of myofibroblast, a key cell type present in fibrotic diseases, including IPF, and is required for production and deposition of collagen.

[4] = Therapeutic silica model: dose levels and lung pharmacokinetic comparison; assay type: in vivo, C57BL/6 mice; details: Oral Gavage (PO) 30.0 mg/kg; mice
Method: Briefly, acclimated 20-22 g female C57BL/6 mice were administered silica on day 1 by the intratracheal route. On the tenth day, treatment was initiated with either saline or nintedanib. […] Sham and silica control groups received saline either IN or PO. Five animals were enrolled into sham groups, 10 animals enrolled into each PO dose groups, and 13 animals were enrolled into each IN dosing group. […] All animals were euthanized on day 30d. Body weights were collected throughout the study, with lung weights at termination. Flexivent was performed to determine elastance (lung function; Table 59). Left lungs were extracted, stained as assessed for parenchymal collagen (Table 60) and α-smooth muscle actin (αSMA; Table 61), while right lungs were assessed for interleukin-1β (IL-1β; Table 62).
Intranasal (IN) dose levels were selected by comparing lung pharmacokinetics following IN dosing to lung pharmacokinetics determined following 30 mg/kg oral gavage (PO).

[5] = Dynamic Vapour Sorption (DVS) hygroscopicity; assay type: physicochemical; details: for DVS mass uptake at 90% RH: 25° C., uptake from input material; for Hygroscopicity: DVS
Method: Dynamic Vapour Sorption (DVS). Approximately, 10 mg of sample was placed into a mesh vapour sorption balance pan and loaded into a DVS-1 or DVS Advantage dynamic vapour sorption balance by Surface Measurement Systems. The sample was subjected to a ramping profile from 40-90% relative humidity (RH) at 10% increments, maintaining the sample at each step until a stable weight had been achieved (dm/dt 0.004%, minimum step length 30 minutes, maximum step length 500 minutes) at 25° C. After completion of the sorption cycle, the sample was dried using the same procedure to 0% RH and then a second sorption cycle back to 40% RH. Two cycles were performed. The weight change during the sorption/desorption cycles were plotted, allowing for the hygroscopic nature of the sample to be determined. XRPD analysis was then carried out on any solid retained.

[6] = Disproportionation/hydration studies (pH, XRPD pattern); assay type: physicochemical; details: for pH Pre-Agitation: listed as HBr salt
Description: No XRPD data could be compiled on the hydration or disproportionation of the salt due to the high solubility in water and acetone/water mixtures.
The salt only remained Pattern 1 at 0.3 aw. New patterns 6 and 7 are likely hydrated due to the high water activity conditions for production.

[7] = Feasibility assessment of ready-to-use nintedanib HBr, HCl and esylate formulations; assay type: physicochemical; details: NaCl at 30 mM or higher concentrations
[8] = system: silica pulmonary fibrosis; assay: Therapeutic silica pulmonary fibrosis model: lung function (elastance, Flexivent); assay type: in vivo, C57BL/6 mice; details: silica mice
Method: Sham and silica control groups received saline either IN or PO. Five animals were enrolled into sham groups, 10 animals enrolled into each PO dose groups, and 13 animals were enrolled into each IN dosing group. […] Body weights were collected throughout the study, with lung weights at termination. Flexivent was performed to determine elastance (lung function; Table 59). […] The ventilator determined the elastance of each lung as a measure of lung stiffness/fibrosis by inflating the lungs and assessing changes in flow and pressure.

interleukin-1β (IL-1β) = assay: Therapeutic silica model: lung interleukin-1β; assay type: in vivo, C57BL/6 mice; details: silica mice
Method: as §1

[9] = Allometric dose scaling from mouse and rat to human; details: for Predicted human half-life: Oral
[10] = Plasma and lung pharmacokinetics of nintedanib esylate, oral vs intratracheal aerosol; assay type: in vivo, C57BL/6 mice; details: for Lung Cmax / plasma AUC as fraction of the 100 mg/kg oral dose: mice
[11] = OP 0.05 mg/kg QD, bleomycin rats
[12] = OP 0.25 mg/kg QD, bleomycin rats
[13] = OP 0.375 mg/kg QD, bleomycin rats
[14] = Oral Gavage (PO) 30 mg/kg BID, lung
[15] = oral nintedanib HBr 30 mg/kg BID

Compound: COC(=O)c1ccc2c(c1)NC(=O)/C2=C(\Nc1ccc(N(C)C(=O)CN2CCN(C)CC2)cc1)c1ccccc1 [Nintedanib HBr]
- Fibrosis Score (SD) (Ashcroft) [1, 11]: 2.7 (0.94)
- Fibrosis Score, Delta to Vehicle (%) [1, 11]: −12.5%
- Fibrosis Score (SD) (Ashcroft) [1, 12]: 2.1 (0.97)
- Fibrosis Score, Delta to Vehicle (%) [1, 12]: 12.5%
- Fibrosis Score (SD) (Ashcroft) [1, 13]: 1.9 (0.48)
- Fibrosis Score, Delta to Vehicle (%) [1, 13]: 20.8%
- Body Weight Gain, Delta to Sham (%) ([2]; OP 0.05 mg/kg QD): −18.4%
- Body Weight Gain, Delta to Sham (%) ([2]; OP 0.25 mg/kg QD): −26.7%
- Body Weight Gain, Delta to Sham (%) ([2]; OP 0.375 mg/kg QD): −4.8%
- Parenchymal Collagen, Delta to Vehicle (%) (parenchymal collagen; Oral Gavage (PO) 30 mg/kg BID): 15.6%
- Parenchymal Collagen (parenchymal collagen; Oral Gavage (PO) 30 mg/kg BID, Picrosirius Red): 0.74
- αSMA (%) [3, 14]: 22.8%
- αSMA, Delta to Vehicle (%) ([3]; Oral Gavage (PO) 30 mg/kg BID, p < 0.005): −47.7^b %
- Lung AUC [4]: 7.4 mg·h/kg
- Lung Cmax [4]: 1.1 µg/g
- DVS mass uptake at 90% RH ([5]; listed as HBr salt): ca. 4.5%
- Hygroscopicity ([5]; listed as HBr): Hygroscopic
- Post-DVS XRPD pattern ([5]; listed as HBr salt): remain unchanged
- Pattern (disproportionation/hydration) ([6]; Water Activity 0.3): 1
- pH Pre-Agitation ([6]; Water Activity 0.3 (acetone/water)): 4.84
- Pattern (disproportionation/hydration) ([6]; Water Activity 0.6): 4
- pH Pre-Agitation ([6]; Water Activity 0.6 (acetone/water)): 5.38
- Pattern (disproportionation/hydration) ([6]; Water Activity 0.9): New pattern (Pattern 6)
- pH Pre-Agitation ([6]; Water Activity 0.9 (acetone/water)): 5.56
- Pattern (disproportionation/hydration) ([6]; Water Activity 1): New pattern (Pattern 7)
- pH Pre-Agitation ([6]; Water Activity 1.0 (water)): 2.27
- compatibility with NaCl [7]: Neither Nintedanib HBr nor Nintedanib HCl is compatible
- Elastance, Delta to Vehicle (%) ([8]; Oral Gavage (PO) 30 mg/kg BID): −122.2%
- Elastance, Sham Subtracted ([8]; Oral Gavage (PO) 30 mg/kg BID): −0.2
- IL-1β, Delta to Vehicle (%) (interleukin-1β (IL-1β); Oral Gavage (PO) 30 mg/kg BID): −1.5%
- IL-1β (interleukin-1β (IL-1β); [14]): 1001.0 pg/mL

Compound: COC(=O)c1ccc2c(c1)NC(=O)/C2=C(\Nc1ccc(N(C)C(=O)CN2CCN(C)CC2)cc1)c1ccccc1 [Nintedanib, methyl (3Z)-3-[[4-[methyl-[2-(4-methylpiperazin-1-yl)acetyl]amino]anilino]-phenylmethylidene]-2-oxo-1H-indole-6-carboxylate]
- Predicted human half-life ([9]; line of Mouse Oral 30.0 mg/kg): 13.6 h
- Predicted human half-life ([9]; line of Rat Oral 60.0 mg/kg): 13.6 h
- Predicted human ELF half-life (alpha) ([9]; from Mouse Inhaled […], 21-fold longer than animal lung half-life): 84^c min
- Predicted human ELF half-life (alpha) ([9]; from Mouse Inhaled […], ELF half-life 21-fold longer than animal lung half-life): 84^c min
- Predicted human ELF half-life (alpha) ([9]; from Rat Inhaled 0.05 mg/kg, 21-fold longer than animal lung half-life): 294^c min
- Predicted human ELF half-life (alpha) ([9]; from Rat Inhaled 0.25 mg/kg, 21-fold longer than animal lung half-life): 294^c min
- Predicted human ELF half-life (alpha) ([9]; from Rat Inhaled 0.375 mg/kg, 21-fold longer than animal lung half-life): 294^c min
- lung fibrosis score (Ashcroft) ([1]; Inhaled (OP) nintedanib HBr dose groups, bleomycin rats): dose responsive reduction in fibrosis score
- anti-fibrotic activity compared with oral 60 mg/kg BID ([1]; inhaled high dose (0.375 mg/kg OP QD)): more anti-fibrotic activity as oral
- anti-fibrotic activity compared with oral 60 mg/kg BID ([1]; inhaled low dose (0.05 mg/kg OP QD)): less anti-fibrotic activity than oral
- anti-fibrotic activity compared with oral 60 mg/kg BID ([1]; inhaled mid-dose (0.25 mg/kg OP QD)): equivalent amount of anti-fibrotic activity as oral
- body weight gain ([2]; High dose OP (0.375 mg/kg nintedanib HBr QD)): weight gain equivalent to sham animals
- body weight gain ([2]; Oral (PO) 60 mg/kg nintedanib esylate BID): gained about half the weight of control animals
- parenchymal collagen (PSR) (parenchymal collagen; inhalation (IN) or oral nintedanib HBr): not reversed by either inhalation or oral nintedanib treatment
- lung αSMA levels ([3]; oral and inhaled (IN) nintedanib HBr): both oral and inhaled routes have a substantial impact reducing αSMA lung levels, with the inhaled low and oral doses showing significance
- less IT nintedanib to achieve the same lung Cmax as oral delivery ([10]; 0.5 mg/kg IT compared to 100 mg/kg oral): about 200 fold
- Lung Cmax ([10]; 2.5 mg/kg IT): 57.5 mcg/gram
- plasma AUC as fraction of the 100 mg/kg oral dose ([10]; 2.5 mg/kg inhaled (IT)): about 1/9
- plasma AUC as fraction of the 100 mg/kg oral dose ([10]; 10 mg/kg inhaled (IT)): ⅓
- Lung Cmax ([10]; 100 mg/kg oral): 12.1 mcg/gram
- Post-DVS XRPD pattern [5]: remain Pattern 1
- DVS mass uptake at 90% RH [5]: ca. 1.7%
- Hygroscopicity [5]: slightly hygroscopic
- lung function (elastance) [8, 15]: Oral was also significant in improving lung function
- lung IL-1β (interleukin-1β (IL-1β); Inhaled (IN) nintedanib HBr dose groups): dose responsive reduction, with the high dose achieving significance
- lung IL-1β (interleukin-1β (IL-1β); [15]): did not reduce IL-1β levels
